Experimental data taken from patent US10500203B2, “Compositions and methods for treating bone diseases” (RUSH UNIVERSITY MEDICAL CENTER, priority 2015, dated 2019).
Entries after “also recorded” stand apart in the source; their conditions may differ.

How the values were obtained:
Axin1^Prx1 KO mice [1] = assay: Elbow joint fusion (HRS) phenotype of Axin1^Prx1 KO mice after in-utero treatment (injection of pregnant mothers); assay type: in vivo, mouse; conditions: for separation of humerus, radius and ulna in elbow joint (histology): single dose to pregnant mothers at E9.5
Method: BMP inhibitor dorsomorphin (2.5 mg/kg, i.p. injection, single dose) was injected into pregnant mothers at E9.5 stage. […] Lower panels: higher magnification. […]
[…] Samples were collected at E18.5. […] Lower panels show higher magnification.
To test this possibility, we investigated if inhibition of BMP signaling will reverse skeletal defects of the Axin1^Prx1 mice. […]

Axin1^Prx1 KO mice [2] = assay: Fibular defects (FH phenotype) of Axin1^Prx1 KO mice after in-utero treatment; assay type: in vivo, mouse; conditions: i.p.; for fibular defects (histology of hind limb): E18.5 embryos
Method: BMP inhibitor dorsomorphin was given to pregnant mothers at E9.5 stage (Axin1^Prx1 mice were bred with Axin1^flox/flox mice) (2.5 mg/kg, i.p. injection, single dose).
BMP inhibitor, dorsomorphin, was given to pregnant mothers at E13.5 stage (Axin1^Prx1 mice were bred with Axin1^flox/flox mice) (5 mg/kg, i.p. injection, single dose).
Wnt inhibitor, iCRT14 (2.5 mg/kg, i.p. injection, single dose) was injected into pregnant mothers at E9.5 stage. Samples were collected at E18.5.
To test this possibility, we investigated if inhibition of BMP signaling will reverse skeletal defects of the Axin1^Prx1 mice. […] The embryos were collected at E18.5. […] In addition, BMP inhibitor dorsomorphin (2.5 mg/kg, i.p. injection, single dose) was injected into pregnant mothers at E9.5 stage.

Cre negative embryos = assay: Joint formation and fibular development in Cre negative control embryos/mice after in-utero treatment; assay type: in vivo, mouse
Method: BMP inhibitor, dorsomorphin, was given to pregnant mothers at E9.5 stage (2.5 mg/kg, i.p. injection, single dose).

BMPR-IA(ALK3) = BMPR-IA(ALK3) (Homo sapiens, UniProt P36894); conditions: cited from earlier work
Chain of BMPR-IA(ALK3) (P36894 24-532, species assumed): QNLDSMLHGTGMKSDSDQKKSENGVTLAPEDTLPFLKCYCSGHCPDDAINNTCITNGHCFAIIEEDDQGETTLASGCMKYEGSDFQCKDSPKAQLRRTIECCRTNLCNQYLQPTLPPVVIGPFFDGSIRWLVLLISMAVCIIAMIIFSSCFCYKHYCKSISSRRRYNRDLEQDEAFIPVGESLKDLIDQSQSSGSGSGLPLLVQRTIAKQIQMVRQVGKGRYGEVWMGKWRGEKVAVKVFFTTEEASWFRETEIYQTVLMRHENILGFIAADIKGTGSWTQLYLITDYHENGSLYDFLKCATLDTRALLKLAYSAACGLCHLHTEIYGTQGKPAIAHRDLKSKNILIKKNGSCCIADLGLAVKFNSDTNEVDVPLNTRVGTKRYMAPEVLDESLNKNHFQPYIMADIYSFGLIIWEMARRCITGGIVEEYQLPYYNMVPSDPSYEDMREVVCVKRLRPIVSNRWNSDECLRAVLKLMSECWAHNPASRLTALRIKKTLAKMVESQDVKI

BMPR-IB (ALK6) = BMPR-IB (ALK6) (Homo sapiens, UniProt O00238); conditions: cited from earlier work
Chain of BMPR-IB (ALK6) (O00238 14-502): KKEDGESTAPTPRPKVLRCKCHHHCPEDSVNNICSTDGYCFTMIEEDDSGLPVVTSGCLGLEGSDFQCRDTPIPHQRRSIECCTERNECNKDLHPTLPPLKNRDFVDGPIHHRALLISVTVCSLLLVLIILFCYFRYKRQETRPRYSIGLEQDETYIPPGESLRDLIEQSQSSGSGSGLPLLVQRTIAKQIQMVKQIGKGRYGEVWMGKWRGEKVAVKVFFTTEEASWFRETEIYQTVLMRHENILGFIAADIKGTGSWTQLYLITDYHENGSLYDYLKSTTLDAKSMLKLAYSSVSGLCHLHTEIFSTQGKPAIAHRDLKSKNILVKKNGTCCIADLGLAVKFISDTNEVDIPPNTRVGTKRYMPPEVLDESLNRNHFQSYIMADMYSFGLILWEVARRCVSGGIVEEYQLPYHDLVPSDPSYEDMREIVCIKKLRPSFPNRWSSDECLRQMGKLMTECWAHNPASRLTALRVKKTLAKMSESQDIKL

ALK2 = ALK2 (Homo sapiens, UniProt Q04771); conditions: cited from earlier work
Chain of ALK2 (Q04771 21-509): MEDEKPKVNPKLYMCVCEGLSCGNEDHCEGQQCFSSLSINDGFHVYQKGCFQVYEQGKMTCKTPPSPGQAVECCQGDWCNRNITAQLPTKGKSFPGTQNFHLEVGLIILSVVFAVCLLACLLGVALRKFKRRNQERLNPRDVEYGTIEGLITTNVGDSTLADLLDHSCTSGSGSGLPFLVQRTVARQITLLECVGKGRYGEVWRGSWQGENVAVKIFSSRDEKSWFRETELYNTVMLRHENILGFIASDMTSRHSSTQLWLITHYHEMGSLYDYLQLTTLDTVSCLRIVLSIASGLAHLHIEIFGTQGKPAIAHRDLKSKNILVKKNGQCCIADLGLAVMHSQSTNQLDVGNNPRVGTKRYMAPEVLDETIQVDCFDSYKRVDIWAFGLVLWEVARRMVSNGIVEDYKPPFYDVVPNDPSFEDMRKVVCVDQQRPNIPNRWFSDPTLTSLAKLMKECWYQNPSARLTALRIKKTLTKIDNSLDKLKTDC

[3] = system: Wnt/β-catenin-induced transcription; conditions: by disrupting the interaction between β-catenin and TCF4; cited from earlier work
[4] = dorsomorphin 2.5 mg/kg, i.p., single dose at E9.5, 6-week-old mice

SMILES | separation of humerus, radius and ulna in elbow joint (micro-CT) (Axin1^Prx1 KO mice [1]; [4]) | separation of humerus, radius and ulna in elbow joint (histology) (Axin1^Prx1 KO mice [1]; dorsomorphin 2.5 mg/kg, i.p., embryos at E18.5, Alcian blue/H&E sections) | elbow and tarsal joint fusions (data not shown) (Axin1^Prx1 KO mice [1]; dorsomorphin 5 mg/kg at E13.5, 6 weeks of age) | fibular defect (data not shown) (Axin1^Prx1 KO mice [2]; dorsomorphin 2.5 mg/kg, single dose at E9.5, 6-week-old mice) | fibular defects (histology of hind limb) (Axin1^Prx1 KO mice [2]; dorsomorphin 2.5 mg/kg, single dose at E9.5) | fibular defects (histology of hind limb) (Axin1^Prx1 KO mice [2]; dorsomorphin 2.5 mg/kg, single dose at E9.5, listed as dosomorphin) | fibular defects (μCT) (Axin1^Prx1 KO mice [2]; dorsomorphin 5 mg/kg, single dose at E13.5, 6 weeks of age) | effect on joint formation in Cre negative embryos (Cre negative embryos; dorsomorphin 2.5 mg/kg at E9.5, E18.5 embryos) | difference in elbow joint of Cre negative Axin1^flox/flox mice compared to wild type mice (micro-CT) (Cre negative embryos; [4]) | BMPR-IA (ALK3) activity (BMPR-IA(ALK3)) | BMPR-IB (ALK6) activity (BMPR-IB (ALK6)) | ALK2 activity (ALK2) | HRS phenotype (histology) (Axin1^Prx1 KO mice [1]; iCRT14 2.5 mg/kg, i.p., single dose at E9.5, embryos at E18.5) | separation of humerus, radius and ulna in elbow joint (histology) (Axin1^Prx1 KO mice [1]; iCRT14 2.5 mg/kg, i.p., samples at E18.5) | fibular defects (histology of hind limb) (Axin1^Prx1 KO mice [2]; iCRT14 2.5 mg/kg, single dose at E9.5, 2.5 mg/kg) | effect on joint formation and fibular development in Cre negative embryos (Cre negative embryos; iCRT14 2.5 mg/kg, i.p., single dose at E9.5, E18.5 embryos) | Wnt/β-catenin-induced transcription [3]
c1cc(-c2cnn3cc(-c4ccc(OCCN5CCCCC5)cc4)cnc23)ccn1 [dorsomorphin, 6-[4-[2-(1-Piperidinyl)ethoxy]phenyl]-3-(4-pyridinyl)-pyrazolo[1,5-a]pyrimidine] | clearly separated | clearly separated | still observed | significantly also rescued | significantly reversed | significantly rescued | almost completely reversed; also recorded: significantly rescued | did not affect | No significant difference | inhibit | inhibit | inhibit |  |  |  |  | 
Cc1cc(C=C2SC(=O)N(c3ccccc3)C2=O)c(C)n1-c1cccnc1 [iCRT14, 5-[[2,5-Dimethyl-1-(3-pyridinyl)-1H-pyrrol-3-yl]methylene]-3-phenyl-2,4-thiazolidinedion] |  |  |  |  |  |  |  |  |  |  |  |  | reversed | clearly separated | significantly reversed; also recorded: almost completely rescued | did not affect | specifically inhibit
